Reference: BindingDB's records for doi:10.1016/S0960-894X(01)80270-5 (1994)

What follows are compounds tested against T1, Neutrophil elastase (Homo sapiens, UniProt P08246) (assay: Inhibitory activity against human leukocyte elastase using MeO-Suc-Ala-Ala-Pro-Val-pNA (416 uM) as substrate).
T1 sequence (P08246 whole entry): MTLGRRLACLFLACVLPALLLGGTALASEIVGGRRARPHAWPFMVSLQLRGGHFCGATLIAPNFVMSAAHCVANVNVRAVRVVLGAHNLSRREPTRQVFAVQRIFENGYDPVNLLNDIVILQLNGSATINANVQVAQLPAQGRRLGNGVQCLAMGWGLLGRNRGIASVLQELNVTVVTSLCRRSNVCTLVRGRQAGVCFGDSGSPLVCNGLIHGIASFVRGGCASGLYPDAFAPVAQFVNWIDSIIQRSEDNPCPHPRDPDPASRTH

IC50, > 1000 µM:
COc1ccc2c(c1)c1c(O)oc(=O)nc1n2CCc1ccccc1 [6-Methoxy-9-phenethyl-1,9-dihydro-[1,3]oxazino[4,5-b]indole-2,4-dione]

What follows are compounds tested against T1, Neutrophil elastase (assay: ChEBML_86533).
Method: Inhibitory activity against human leukocyte elastase using MeO-Suc-Ala-Ala-Pro-Val-pNA (416 uM) as substrate;No Inhibition

IC50, > 1000 µM:
CCCCn1c(C)c(C)c2c(O)oc(=O)nc21 [1-Butyl-2,3-dimethyl-1,7-dihydro-5-oxa-1,7-diaza-indene-4,6-dione], Cc1c(C)n(C2CCCCC2)c2nc(=O)oc(O)c12 [1-Cyclohexyl-2,3-dimethyl-1,7-dihydro-5-oxa-1,7-diaza-indene-4,6-dione], COCCn1c2ccc(OC)cc2c2c(O)oc(=O)nc21 [6-Methoxy-9-(2-methoxy-ethyl)-1,9-dihydro-[1,3]oxazino[4,5-b]indole-2,4-dione], COc1ccc2c(c1)c1c(O)oc(=O)nc1n2Cc1ccccn1 [6-Methoxy-9-pyridin-2-ylmethyl-1,9-dihydro-[1,3]oxazino[4,5-b]indole-2,4-dione], COc1ccc2c(c1)c1c(O)oc(=O)nc1n2CC(OC)OC [9-(2,2-Dimethoxy-ethyl)-6-methoxy-1,9-dihydro-[1,3]oxazino[4,5-b]indole-2,4-dione], COc1ccc2c(c1)c1c(O)oc(=O)nc1n2C1CCCCC1 [9-Cyclohexyl-6-methoxy-1,9-dihydro-[1,3]oxazino[4,5-b]indole-2,4-dione], COCCn1c2ccc(OC(C)=O)cc2c2c(O)oc(=O)nc21 [Acetic acid 9-(2-methoxy-ethyl)-2,4-dioxo-1,2,4,9-tetrahydro-[1,3]oxazino[4,5-b]indol-6-yl ester]
